These results are taken from ChEMBL document CHEMBL1147867, “Identification of antitumour activity of novel derivatives of 8-aryl-2,6,7,8-tetrahydroimidazo[2,1-c][1,2,4]triazine-3,4-dione and 8-aryl-4-imino-2,3,7,8-tetrahydroimidazo[2,1-c][1,2,4]triazin-3(6H)-one” (Bioorg Med Chem, 2007).

The MIC is the least concentration at which growth counts as inhibited. A word on the inhibition: it is the relative decrease from the control value, in per cent. One may read the LD50 as the dose at which mortality reaches 50%.

In data set [1] the test system is Streptococcus pyogenes. Description: Antibacterial activity against Streptococcus pyogenes after 24 hrs by microdilution broth method. Type of data set: functional. (In general: In broth dilution the organism is exposed to a series of concentrations in liquid medium.)
In data set [2] the test system is T47D. Description: Cytotoxicity against human T47D cells at 10 ug/ml after 72 hrs. Type of data set: functional.
Data set [3] in a line: Cytotoxicity against Vero cells at 10 ug/ml after 72 hrs. Type of data set: cell-based. Particulars: chlorocebus sabaeus, read-out: Inhibition.
Data set [4] concerns Staphylococcus epidermidis. Description: Antibacterial activity against Staphylococcus epidermidis after 24 hrs by microdilution broth method. Type of data set: functional.
The test system of data set [5] is Staphylococcus aureus. Description: Antibacterial activity against Staphylococcus aureus after 24 hrs by microdilution broth method. Type of data set: functional.
A short description of data set [6]: Cytotoxicity against human LS180 cells at 50 ug/ml after 72 hrs. The note with it: LS180, 72 h. Type of data set: functional.
Data set [7] concerns HeLa. Description: Cytotoxicity against human HeLa cells at 50 ug/ml after 72 hrs. Type of data set: functional.
Data set [8] concerns T47D. Description: Cytotoxicity against human T47D cells at 50 ug/ml after 72 hrs. Type of data set: functional.
For data set [9], the system named is HeLa. Description: Cytotoxicity against human HeLa cells at 10 ug/ml after 72 hrs. Type of data set: functional.
The nature of data set [10]: Cytotoxicity against human LS180 cells at 10 ug/ml after 72 hrs. Particulars: LS180, 72 h. Type of data set: functional.
The nature of data set [11]: Cytotoxicity against Vero cells at 50 ug/ml after 72 hrs. Type of data set: cell-based. Particulars: chlorocebus sabaeus, read-out: Inhibition.
Data set [12] has as its system Escherichia coli. Description: Antibacterial activity against Escherichia coli after 24 hrs by microdilution broth method. Type of data set: functional.
Data set [13] is described as follows: Acute toxicity in mouse. Type of data set: organism-based. The note with it: in vivo.
The subject of data set [14] is RPMI-8226. Description: Cell viability in human RPMI 8226 ECACC 87012702 cancer cells at 100 uM after 24 hrs by MTT assay. Type of data set: functional. In general terms: Formazan colour is commonly taken as a measure of viable cells.
Data set [15] concerns A549. Description: Anticancer activity against human A549 cells at 50 ug/ml after 72 hrs. Type of data set: functional. Particulars: A549, 72 h.
Data set [16] in a line: Cell viability in HSF cells at 100 uM after 24 hrs by MTT assay. Type of data set: functional, Homo sapiens, Fibroblast.
The test system of data set [17] is RPMI-8226. Description: Cell viability in human RPMI 8226 ECACC 87012702 cancer cells at 50 uM after 24 hrs by MTT assay. Type of data set: functional.
The nature of data set [18]: Cell viability in HSF cells at 50 uM after 24 hrs by MTT assay. Type of data set: cell-based, Fibroblast. The note with it: human, read-out: Activity.
A short description of data set [19]: Cell viability in HSF cells at 1 uM after 24 hrs by MTT assay. Type of data set: cell-based, Fibroblast. Particulars: human, read-out: Activity.
The subject of data set [20] is A549. Description: Anticancer activity against human A549 cells at 10 ug/ml after 72 hrs. Type of data set: functional. Particulars: A549, 72 h.
Data set [21] deals with RPMI-8226. Description: Cell viability in human RPMI 8226 ECACC 87012702 cancer cells at 1 uM after 24 hrs by MTT assay. Type of data set: functional.
Data set [22] deals with HeLa. Description: Induction of DNA damage in HeLa cells at 37.9 uM. Type of data set: functional, cell-based. The note with it: Homo sapiens.
Data set [23] deals with T47D. Description: Induction of DNA damage in T47D cells at 37.9 uM. The note with it: Homo sapiens. Type of data set: functional, cell-based.
The subject of data set [24] is LS180. Description: Induction of DNA damage in LS180 cells at 37.9 uM. Type of data set: functional, cell-based. The note with it: Homo sapiens.
In data set [25] the test system is Jurkat. Description: Anticancer activity against human jurkat cells. Type of data set: functional, cell-based.
Data set [26] relates to HT-29. Description: Anticancer activity against human HT 29 cells. Type of data set: functional, cell-based.

The structures appear in SMILES notation. Converted amounts (≈) assume the structure as drawn. The source made the active and inactive calls. The calls are words filed in the database; no cut-off is given here.

As for `Cc1cccc(N2CCN/C2=N\N)c1C`, the minimum inhibitory concentration (MIC) in data set [1] is 75.2 µM (≈ 15.4 µg/mL); in [4] it was 18.8 µM (≈ 3.84 µg/mL); in [5], 37.6 µM (≈ 7.68 µg/mL); in data set [12], 18.8 µM (≈ 3.84 µg/mL). The inhibition at 10 µg/mL in data set [2] was 21%; in data set [9] it was 8%; in data set [10], 6%. Besides, in data set [3], the cytotoxicity at 72 h, 10 ug/ml was 16%. Also, the inhibition at 50 µg/mL in data set [6] amounted to 0%; in data set [7] it was 0%; in data set [8] it was 25%. The cytotoxicity at 72 h, 50 ug/ml in [11] is 14%.
On to `N/N=C1\NCCN1c1ccc(Cl)cc1`, for which the minimum inhibitory concentration (MIC) was 59.1 µM (≈ 12.5 µg/mL) in data set [1], 18.4 µM (≈ 3.88 µg/mL) in data set [4], 29.5 µM (≈ 6.21 µg/mL) in [5] and 36.9 µM (≈ 7.77 µg/mL) in data set [12].
In the case of `COc1ccc(N2CCN/C2=N\N)cc1`, the minimal inhibitory concentration (MIC) in data set [1] came out at 59.8 µM (≈ 12.3 µg/mL); in data set [4], 18.7 µM (≈ 3.86 µg/mL); in [5], 29.9 µM (≈ 6.17 µg/mL); in data set [12], 15 µM (≈ 3.09 µg/mL). Besides, the inhibition at 10 µg/mL amounted to 17% in data set [2], 0% in data set [9] and 4% in data set [10]. In addition, the cytotoxicity at 72 h, 10 ug/ml in data set [3] was found to be 0%. The inhibition at 50 µg/mL worked out at 9% in data set [6], 0% in data set [7] and 23% in data set [8]. Moreover, in data set [11], the cytotoxicity at 72 h, 50 ug/ml was determined as 0%.
As for `Cc1ccccc1N1CCN/C1=N\N`, the minimum inhibitory concentration (MIC) in data set [1] is 78.6 µM (≈ 15 µg/mL); in data set [4], 31.4 µM (≈ 5.97 µg/mL); in [5], 39.3 µM (≈ 7.48 µg/mL); in data set [12] it was 15.7 µM (≈ 2.99 µg/mL).
In turn, `COc1ccc(N2CCn3c2n[nH]c(=O)c3=O)cc1` displayed a 50% lethal dose (LD50) in [13] of 1500 mg/kg. Besides, the inhibition at 10 µg/mL in [2] amounted to 7%; in [20] it was 0%; in data set [9], 6%; in [10], 0%. The cytotoxicity at 72 h, 10 ug/ml in data set [3] was 0%. Also, the Activity in data set [14] was 99%; in data set [16], 94%; in data set [17], 99%; in data set [21] it was 98%. Moreover, the inhibition at 50 µg/mL in data set [15] is 0%; in data set [6], 46%; in data set [7], 0%; in data set [8], 21%. The viability at 24 h, 50 µM in data set [18] stood at 92%. In addition, the viability at 24 h, 1 µM in [19] was 94%. In addition, the cytotoxicity at 72 h, 50 ug/ml in data set [11] turned out to be 10%.
Consider `N/N=C1\NCCN1c1ccccc1`, for which the MIC was determined as 65.8 µM (≈ 11.6 µg/mL) in data set [1], 41.1 µM (≈ 7.24 µg/mL) in data set [4], 41.1 µM (≈ 7.24 µg/mL) in data set [5] and 41.1 µM (≈ 7.24 µg/mL) in data set [12]. Besides, the inhibition at 10 µg/mL in data set [2] turned out to be 0%; in data set [9] it was 6%; in data set [10], 1%. Moreover, in [3], the cytotoxicity at 72 h, 10 ug/ml came out at 0%. For the same molecule, the inhibition at 50 µg/mL was 0% in data set [6], 3% in data set [7] and 0% in data set [8]. Further, the cytotoxicity at 72 h, 50 ug/ml in data set [11] was found to be 0%.
With `O=c1[nH]nc2n(c1=O)CCN2c1ccccc1`, the 50% lethal dose (LD50) in data set [13] is 1400 mg/kg. Besides, the inhibition at 10 µg/mL in data set [2], in data set [20], in data set [9] and in [10] was 0% throughout. For the same molecule, the cytotoxicity at 72 h, 10 ug/ml in data set [3] is 7%. Moreover, the Activity in data set [14] was 86%; in data set [16], 94%; in data set [17] it was 96%; in [21], 96%. Further, the inhibition at 50 µg/mL in data set [15] came out at 17%; in data set [6], 12%; in data set [7], 0%; in [8] it was 0%. Besides, in data set [18], the viability at 24 h, 50 µM was 95%. For the same molecule, the viability at 24 h, 1 µM in [19] came out at 93%. Also, the cytotoxicity at 72 h, 50 ug/ml in [11] was 30%.
The molecule `O=c1[nH]nc2n(c1=O)CCN2c1ccc(Cl)cc1` yielded an LD50 in data set [13] above 2000 mg/kg. Moreover, the inhibition at 10 µg/mL in data set [2] was 5%; in data set [20], 0%; in data set [9] it was 2%; in data set [10], 50%. The cytotoxicity at 72 h, 10 ug/ml in data set [3] is 0%. Besides, the result in [22], in data set [23] and in data set [24] was Active. In addition, the Activity in data set [14] came out at 61%; in [16], 96%; in [17], 89%; in data set [21] it was 104%. For the same molecule, the inhibition at 50 µg/mL is 15% in data set [15], 35% in data set [6], 26% in data set [7] and 1% in data set [8]. For the same molecule, in data set [18], the viability at 24 h, 50 µM was found to be 95%. In addition, in data set [19], the viability at 24 h, 1 µM came to 99%. In data set [11], the cytotoxicity at 72 h, 50 ug/ml worked out at 7%.
Turning to `COc1ccccc1N1CCN/C1=N\N`, the MIC in [1] was found to be 74.8 µM (≈ 15.4 µg/mL); in data set [4], 37.4 µM (≈ 7.71 µg/mL); in [5], 37.4 µM (≈ 7.71 µg/mL); in [12] it was 29.9 µM (≈ 6.17 µg/mL).
Molecule `COc1ccccc1N1CCn2c1n[nH]c(=O)c2=O` registered an LD50 in data set [13] of 1100 mg/kg. Besides, the inhibition at 10 µg/mL in data set [2] worked out at 1%; in [20] it was 0%; in data set [9] it was 5%; in data set [10] it was 30%. Also, in data set [3], the cytotoxicity at 72 h, 10 ug/ml came out at 26%. Further, the Activity in data set [14] stood at 85%; in data set [16] it was 94%; in data set [17], 90%; in [21] it was 90%. Moreover, the inhibition at 50 µg/mL in [15] was 39%; in data set [6], 29%; in data set [7], 8%; in [8], 9%. Moreover, the viability at 24 h, 50 µM in data set [18] worked out at 101%. Besides, the viability at 24 h, 1 µM in data set [19] came to 103%. Further, the cytotoxicity at 72 h, 50 ug/ml in data set [11] came out at 17%.
Consider `Cc1ccc(N2CCn3c2n[nH]c(=O)c3=O)cc1`, for which the LD50 in data set [13] turned out to be 1800 mg/kg. Further, the inhibition at 10 µg/mL in [2] is 14%; in data set [20], 20%; in data set [9] it was 0%; in [10], 2%. Besides, the cytotoxicity at 72 h, 10 ug/ml in [3] was 0%. Further, the Activity was 83% in data set [14], 92% in data set [16], 91% in [17] and 95% in [21]. The inhibition at 50 µg/mL is 31% in data set [15], 0% in data set [6], 11% in [7] and 22% in data set [8]. The viability at 24 h, 50 µM in [18] amounted to 97%. For the same molecule, in data set [19], the viability at 24 h, 1 µM was found to be 93%. Moreover, the cytotoxicity at 72 h, 50 ug/ml in data set [11] turned out to be 0%.
For the molecule `Cc1ccc(N2CCn3c2n[nH]c(=O)c3=N)cc1`, the inhibition at 10 µg/mL in [2] turned out to be 0%; in [20], 37%; in data set [9], 0%; in data set [10], 32%. The cytotoxicity at 72 h, 10 ug/ml in data set [3] was determined as 0%. Further, the inhibition at 50 µg/mL in data set [15] amounted to 38%; in data set [6], 45%; in data set [7], 0%; in [8] it was 0%. Besides, the result in data set [25] and in data set [26] was Active. In addition, in [11], the cytotoxicity at 72 h, 50 ug/ml came to 0%.
